Source: patent publication US20100160255A1, “SPIRO-CYCLIC COMPOUND” (Takeda Pharmaceutical Company Limited, priority 2005, published 2010)
Read-outs that look alike come from different tables or passages of the source.

Columns and labels:
human ACC1 = molecular target: T1, human ACC1 (Homo sapiens, UniProt Q13085); test: ACC1 inhibitory activity (malachite green absorbance assay, recombinant enzyme); assay type: biochemical
T1 construct: made in house; host or cells: SF-9 insect cells, recombinant baculovirus BAC-ACC1
Procedure: The ACC1 inhibitory activity of the compound of the present invention was evaluated by the following method.
(§1) Human ACC1 gene was cloned by PCR using human liver cDNA library (Clontech) as a template, and Primer 1 and Primer 2 shown below. Primer 1 and Primer 2 were prepared by adding recognition sequence of restriction enzymes SalI and NotI based on the information of the base sequence (Genbank Accession U19822) of human ACC1 gene.
(§2) PCR was performed using Pyrobest DNA polymerase (TAKARA BIO INC.). The obtained PCR product was cloned to pT7 Blue vector (Novagen) which was, after confirmation of the base sequence, digested with restriction enzymes SalI and NotI. The obtained DNA fragment was inserted into pFAST-BacHTc (Invitrogen) digested with restriction enzymes SalI and NotI to give expression plasmid ACC1/pFAST-BacHTc.
Using the expression plasmid and BAC-TO-BAC Baculovirus Expression System (Invitrogen), virus stock BAC-ACC1 of recombinant Baculovirus was prepared.
(§3) SF-9 cells (Invitrogen) were sown at 1×10^6 cells/mL to insect cell culture medium (1 L, Sf-900II SFM medium (Invitrogen) containing 10% fetal bovine serum (Trace), 50 mg/L gentamicin (Invitrogen) and 0.1% Pluronic F-68 (Invitrogen)), and shaking culture was performed using a 2 L volume Erlenmeyer flask at 27° C., 100 rpm.
After culturing for 24 hr, the recombinant Baculovirus BAC-ACC1 (10 mL) was added, and the mixture was further cultured for 3 days. The culture medium was centrifuged at 1000×g for 5 min to give virus-infected cells. The infected cells were washed with phosphate buffered saline (Invitrogen) and centrifuged under the same conditions, and the obtained cells were cryopreserved at −80° C.
The cryopreserved cells were thawed in ice, suspended in 25 mM HEPES buffer (100 mL, pH 7.5) containing 10% Glycerol, 0.13 M NaCl, 1 mM EDTA, 25 mM sodium β-glycerophosphate, 1 mM sodium orthovanadate, added with Complete Protease Inhibitor (Boehringer). The obtained suspension was homogenized 3 times with a Polytron homogenizer (Kinematica) at 20,000 rpm for 30 seconds. The obtained cell disrupt solution was clarified by centrifugation at 185700×g for 50 min and filtrated using a 0.45 μm filter. The filtrate was passed through a column packed with Ni-NTA Super Flow Gel (QIAGEN, 12 mL) at a flow rate of about 5 mL/min. The column was washed with buffer A (50 mM HEPES containing 0.3M NaCl, pH 7.5), further washed with buffer A containing 20 mM Imidazole, and eluted with buffer A containing 100 mM Imidazole. The eluate was concentrated with Vivaspin 20 (Vivascience) having a molecular weight cut off of 30 K. The obtained concentrate was dialyzed using Sephadex G-25 (Amersham Bioscience K.K., 358 mL) equilibrated with 50 mM HEPES (pH7.5) containing 10 mM MgCl2, 2 mM dithiothreitol, 10 mM tripotassium citrate and 0.3M NaCl. The dialysate was concentrated with Vivaspin 20 (Vivascience) having a molecular weight cut off of 30 K and the concentrate was filtered through a 0.22 μm filter to give ACC1. The obtained ACC1 was cryopreserved at −80° C.
ACC1 (0.93 mg/ml) obtained in (2) above was diluted to a concentration of 8 μg/ml with an enzyme reaction buffer (50 mM HEPES (pH7.5), 10 mM MgCl2, 10 mM tripotassium citrate, 2 mM dithiothreitol, 0.75 mg/ml fatty acid free BSA), and added to each well of a 384 well assay plate (Nunc 265196) by 10 μl. […]

human ACC2 = molecular target: T2, human ACC2 (Homo sapiens, UniProt O00763); test: ACC2 inhibitory activity (malachite green absorbance assay, recombinant ACC2(Nd)); assay type: biochemical
T2 construct: made in house; host or cells: SF-9 insect cells, recombinant baculovirus BAC-ACC2(Nd)
T2 sequence (O00763 117-2458 limits assumed): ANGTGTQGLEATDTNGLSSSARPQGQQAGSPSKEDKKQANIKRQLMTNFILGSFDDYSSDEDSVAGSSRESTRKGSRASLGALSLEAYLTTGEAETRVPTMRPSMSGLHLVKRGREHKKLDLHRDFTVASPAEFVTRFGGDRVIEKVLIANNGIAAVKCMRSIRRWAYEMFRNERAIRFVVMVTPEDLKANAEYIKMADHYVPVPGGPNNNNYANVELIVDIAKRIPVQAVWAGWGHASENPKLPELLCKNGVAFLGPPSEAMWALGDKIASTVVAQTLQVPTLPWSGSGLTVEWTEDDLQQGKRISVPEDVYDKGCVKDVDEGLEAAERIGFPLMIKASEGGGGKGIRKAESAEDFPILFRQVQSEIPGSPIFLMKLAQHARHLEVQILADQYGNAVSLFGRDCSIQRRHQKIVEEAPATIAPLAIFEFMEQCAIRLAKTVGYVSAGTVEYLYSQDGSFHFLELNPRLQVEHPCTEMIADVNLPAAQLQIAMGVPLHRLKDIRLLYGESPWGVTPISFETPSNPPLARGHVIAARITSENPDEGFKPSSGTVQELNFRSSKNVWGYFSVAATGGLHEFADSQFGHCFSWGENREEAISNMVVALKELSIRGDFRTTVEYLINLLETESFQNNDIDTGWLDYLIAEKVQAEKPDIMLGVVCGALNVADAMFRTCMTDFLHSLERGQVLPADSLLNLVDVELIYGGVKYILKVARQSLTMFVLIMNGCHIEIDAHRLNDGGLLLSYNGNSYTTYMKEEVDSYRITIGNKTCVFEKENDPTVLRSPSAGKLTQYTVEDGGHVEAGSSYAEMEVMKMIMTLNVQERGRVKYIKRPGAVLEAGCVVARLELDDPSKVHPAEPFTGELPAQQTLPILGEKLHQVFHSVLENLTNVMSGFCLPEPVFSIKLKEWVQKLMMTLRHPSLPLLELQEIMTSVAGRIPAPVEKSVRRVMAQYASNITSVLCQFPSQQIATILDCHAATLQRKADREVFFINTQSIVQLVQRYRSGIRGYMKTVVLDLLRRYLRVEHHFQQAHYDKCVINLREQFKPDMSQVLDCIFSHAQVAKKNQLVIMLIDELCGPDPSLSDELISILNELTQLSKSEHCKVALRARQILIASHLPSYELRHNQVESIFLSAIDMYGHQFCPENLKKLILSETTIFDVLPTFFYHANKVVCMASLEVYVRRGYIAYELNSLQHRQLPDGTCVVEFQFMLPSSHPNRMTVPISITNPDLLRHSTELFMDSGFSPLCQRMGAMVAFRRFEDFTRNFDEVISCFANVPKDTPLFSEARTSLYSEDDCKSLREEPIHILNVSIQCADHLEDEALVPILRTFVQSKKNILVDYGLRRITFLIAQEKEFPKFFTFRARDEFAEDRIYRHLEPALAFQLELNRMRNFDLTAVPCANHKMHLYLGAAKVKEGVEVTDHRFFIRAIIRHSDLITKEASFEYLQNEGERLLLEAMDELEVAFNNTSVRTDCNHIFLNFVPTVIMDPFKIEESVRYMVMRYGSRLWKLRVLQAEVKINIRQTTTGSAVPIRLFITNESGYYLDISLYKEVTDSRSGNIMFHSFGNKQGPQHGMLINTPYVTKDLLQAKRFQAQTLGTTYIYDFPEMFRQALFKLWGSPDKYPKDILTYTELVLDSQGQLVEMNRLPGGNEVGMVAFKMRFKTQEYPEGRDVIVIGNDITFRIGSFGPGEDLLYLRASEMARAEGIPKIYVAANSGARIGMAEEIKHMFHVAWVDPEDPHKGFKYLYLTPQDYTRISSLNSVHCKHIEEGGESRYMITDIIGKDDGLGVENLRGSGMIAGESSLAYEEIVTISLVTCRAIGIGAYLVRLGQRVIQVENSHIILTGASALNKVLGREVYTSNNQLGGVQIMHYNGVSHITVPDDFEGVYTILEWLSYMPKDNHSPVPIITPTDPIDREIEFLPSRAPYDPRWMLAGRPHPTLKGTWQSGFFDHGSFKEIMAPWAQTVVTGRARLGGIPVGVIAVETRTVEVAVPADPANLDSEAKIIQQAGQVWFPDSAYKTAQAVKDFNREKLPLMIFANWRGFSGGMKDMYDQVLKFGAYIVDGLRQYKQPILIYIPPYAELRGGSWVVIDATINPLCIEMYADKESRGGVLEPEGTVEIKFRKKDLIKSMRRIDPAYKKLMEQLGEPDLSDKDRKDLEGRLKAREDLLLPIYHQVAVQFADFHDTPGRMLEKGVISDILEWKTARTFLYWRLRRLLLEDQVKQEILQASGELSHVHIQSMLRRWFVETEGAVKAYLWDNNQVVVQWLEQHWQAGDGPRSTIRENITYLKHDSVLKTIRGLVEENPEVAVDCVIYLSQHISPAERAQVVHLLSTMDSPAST
Procedure: The ACC2 inhibitory activity of the compound of the present invention was evaluated by the following method.
as §1, with “ACC2” for “ACC1”, “skeletal muscle” for “liver”, “XbaI” for “NotI”, “U89344)” for “U19822)”
as §2, with “XbaI.” for “NotI.”, “pFAST-BacHTa” for “pFAST-BacHTc”, “XbaI” for “NotI”, “ACC2/pFAST-BacHTa.” for “ACC1/pFAST-BacHTc.”
A plasmid for expression of ACC2 free of mitochondrial targeting sequence was prepared by PCR using the expression plasmid as a template, and Primer 3 and Primer 4 shown below.
as §2, with “AflII.” for “NotI.”, “pFAST-BacHTa” for “pFAST-BacHTc”, “AflII” for “NotI”, “ACC2mito7/pFAST-BacHTa.” for “ACC1/pFAST-BacHTc.”
Using the expression plasmid and BAC-TO-BAC Baculovirus Expression System (Invitrogen), virus stock BAC-ACC2 of recombinant Baculovirus (N terminal deletion (hereinafter Nd)) was prepared.
as §3, with “0.5×10^6” for “1×10^6”, “(2” for “(1”, “Wave Bioreactor (Wave) under the conditions of” for “2 L volume Erlenmeyer flask at”, “20 rpm, rocking angle of 6° and oxygen concentration of 30%.” for “100 rpm.”
On day 4 of the culture, 3 L of an insect cell culture medium was added, the rocking angle was set to 8°, and the cells were further cultured. On day 5 of the culture, the recombinant Baculovirus BAC-ACC2(Nd) (100 mL) was added, 5 L of the insect cell culture medium was further added, the rocking angle was set to 11°, and the cells were cultured for 3 days. The culture medium was centrifuged at 1000×g for 10 min to give virus-infected cells. The infected cells were washed with phosphate buffered saline (Invitrogen) and centrifuged under the same conditions, and the obtained cells were cryopreserved at −80° C.
The cryopreserved cells were thawed in ice, suspended in 25 mM HEPES buffer (900 mL, pH 7.5) containing 10% Glycerol, 0.13 M NaCl, 1 mM EDTA, 25 mM sodium β-glycerophosphate, 1 mM sodium orthovanadate, added with Complete Protease Inhibitor (Boehringer). The obtained suspension was homogenized 3 times with a Polytron homogenizer (Kinematica) at 20,000 rpm for 30 seconds. The obtained cell disrupt solution was clarified by centrifugation at 31000×g for 60 min and filtrated using a 0.45 μm filter. The filtrate was passed through a column packed with Ni-NTA Super Flow Gel (QIAGEN, 60 mL) at a flow rate of about 5 mL/min. The column was washed with buffer A (50 mM HEPES containing 0.3M NaCl, pH 7.5), further washed with buffer A containing 20 mM Imidazole, and eluted with buffer A containing 100 mM Imidazole. The eluate was concentrated with Vivaspin 20 (Vivascience) having a molecular weight cut off of 30 K. The obtained concentrate was dialyzed against 50 mM HEPES (pH7.5) containing 10 mM MgCl2, 2 mM dithiothreitol, 10 mM tripotassium citrate and 0.3M NaCl. The dialysate was filtered through a 0.22 μm filter to give ACC2(Nd). The obtained ACC2(Nd) was cryopreserved at −80° C. […]

[1] = Experimental Example 3, same manner as Experimental Example 1, read-out: IC50 values (ACC1 inhibitory activity)
[2] = Table 8, recombinant human ACC1, 30° C., absorbance 620 nm, read-out: IC50 (ACC1 inhibitory activity)
[3] = Experimental Example 4, same manner as Experimental Example 2, read-out: IC50 values (ACC2 inhibitory activity)
[4] = Table 9, recombinant human ACC2(Nd), N terminal deletion, 30° C., absorbance 620 nm, read-out: IC50 (ACC2 inhibitory activity)

| SMILES | IC50 (human ACC1; [1]) [nM] | IC50 (human ACC1; [2]) [nM] | IC50 (human ACC2; [3]) [nM] | IC50 (human ACC2; [4]) [nM] |
| --- | --- | --- | --- | --- |
| CCNC(=O)Nc1sc(-c2ccc(C(=O)O)cc2)cc1C(=O)N1CCC(N2CCCC3(C2)CC(C)(C)OC3=O)CC1 (stereo not shown) [Example 190, 4-(4-{[4-(3,3-dimethyl-1-oxo-2-oxa-7-azaspiro[4.5]dec-7-yl)piperidin-1-yl]carbonyl}-5-[(ethylcarbamoyl)amino]-2-thienyl)benzoic acid] | ≤ 100 | 80 | ≤ 10 | 9 |
| CCNC(=O)Nc1sc2ccccc2c1C(=O)N1CCC(N2CCCC3(C2)CC(C)(C)OC3=O)CC1 (stereo not shown) [Example 36, N-(3-{[4-(3,3-Dimethyl-1-oxo-2-oxa-7-azaspiro[4.5]dec-7-yl)piperidin-1-yl]carbonyl}-1-benzothien-2-yl)-N′-ethylurea] | ≤ 100 | 79 | ≤ 10 | 8 |
| CCNC(=O)Nc1sc2ccccc2c1C(=O)N1CCC(N2CCCC3(CC(=O)NC3=O)C2)CC1 (stereo not shown) [Example 311, N-(3-{[4-(1,3-dioxo-2,7-diazaspiro[4.5]dec-7-yl)piperidin-1-yl]carbonyl}-1-benzothien-2-yl)-W-ethylurea] | – | 400 | – | 31 |
| CCCN1CCC2(CCCN(C3CCN(C(=O)c4c(NC(N)=O)sc5ccccc45)CC3)C2)C1=O (stereo not shown) [Example 352, N-(3-{[4-(1-oxo-2-propyl-2,7-diazaspiro[4.5]dec-7-yl)piperidin-1-yl]carbonyl}-1-benzothien-2-yl)urea] | – | 290 | – | 41 |
| CCNC(=O)Nc1sc(-c2ccccn2)cc1C(=O)N1CCC(N2CCCC3(C2)OC(=O)N(CC)C3=O)CC1 (stereo not shown) [Example 245, 1-ethyl-3-(3-{[4-(3-ethyl-2,4-dioxo-1-oxa-3,7-diazaspiro[4.5]dec-7-yl)piperidin-1-yl]carbonyl}-5-(pyridin-2-yl)-2-thienyl)urea] | – | 980 | – | 46 |
| CCN1C(=O)OC2(CCCN(C3CCN(C(=O)c4c(NC(=O)NC)sc5ccccc45)CC3)C2)C1=O (stereo not shown) [Example 347, N-(3-{[4-(3-ethyl-2,4-dioxo-1-oxa-3,7-diazaspiro[4.5]dec-7-yl)piperidin-1-yl]carbonyl)-1-benzothien-2-yl)-N′-methylurea] | – | 310 | – | 34 |
| CCNC(=O)Nc1sc2ccccc2c1C(=O)N1CCC(N2CCCC3(CCN(CC)C3=O)C2)CC1 (racemic) [Example 321, N-ethyl-N′-(3-{[4-(2-ethyl-1-oxo-2,7-diazaspiro[4.5]dec-7-yl)piperidin-1-yl]carbonyl}-1-benzothien-2-yl)urea] | – | 360 | – | 34 |
| CCN1C(=O)CC2(CCCN(C3CCN(C(=O)c4c(NC(=O)NC)sc5ccccc45)CC3)C2)C1=O (stereo not shown) [Example 363, N-(3-{[4-(2-ethyl-1,3-dioxo-2,7-diazaspiro[4.5]dec-7-yl)piperidin-1-yl]carbonyl}-1-benzothien-2-yl)-N′-methylurea] | – | 340 | – | 56 |
| CCNC(=O)Nc1sc2ccccc2c1C(=O)N1CCC(N2CCCC3(CC(=O)N(C)C3=O)C2)CC1 (stereo not shown) [Example 380, N-ethyl-N′-(3-{[4-(2-methyl-1,3-dioxo-2,7-diazaspiro[4.5]dec-7-yl)piperidin-1-yl]carbonyl}-1-benzothien-2-yl)urea] | – | 210 | – | 45 |
| CCNC(=O)Nc1sc2ccccc2c1C(=O)N1CCC(N2CCCC3(C2)N=C(C)N(CC)C3=O)CC1 (stereo not shown) [Example 401, 1-ethyl-3-(3-{[4-(3-ethyl-2-methyl-4-oxo-1,3,7-triazaspiro[4.5]dec-1-en-7-yl)piperidin-1-yl]carbonyl}-1-benzothien-2-yl)urea] | ≤ 100 | 73 | – | 15 |
| CC(C)NC(=O)Nc1sc2ccccc2c1C(=O)N1CCC(N2CCCC3(CC(=O)NC3=O)C2)CC1 (stereo not shown) [Example 397, N-(3-{[4-(1,3-dioxo-2,7-diazaspiro[4.5]dec-7-yl)piperidin-1-yl]carbonyl}-1-benzothien-2-yl)-N′-isopropylurea] | – | 220 | – | 39 |
| CCNC(=O)Nc1sc2c(c1C(=O)N1CCC(N3CCCC4(C3)OC(=O)N(C(C)(C)C)C4=O)CC1)CCCC2=O (stereo not shown) [Example 420, N-(3-{[4-(3-tert-butyl-2,4-dioxo-1-oxa-3,7-diazaspiro[4.5]dec-7-yl)piperidin-1-yl]carbonyl}-7-oxo-4,5,6,7-tetrahydro-1-benzothien-2-yl)-N′-ethylurea] | ≤ 100 | – | ≤ 10 | – |
| CNC(=O)Nc1sc2ccccc2c1C(=O)N1CCC(N2CCCC3(CCN(C(C)C)C3=O)C2)CC1 (stereo not shown) [Example 360, N-(3-{[4-(2-isopropyl-1-oxo-2,7-diazaspiro[4.5]dec-7-yl)piperidin-1-yl]carbonyl}-1-benzothien-2-yl)-N′-methylurea] | – | 110 | – | 22 |
